Experimental data published in patent US9987272B2, “Compound useful for the treatement of degenerative and inflammatory diseases” (GALAPAGOS NV, priority 2011, dated 2018).
Several values for one entry are separate records, joined by “and”; a condition that tells them apart may be missing. Identical values can stand only once.

Experiments:
JAK-STAT = JAK-STAT signalling assay; type: cell-based; conditions: HeLa cells, pSTAT1(2)-luciferase reporter, human OSM 33 ng/mL; read-out: IC50 against JAK-STAT
Protocol: HeLa cells were maintained in Dulbecco's Modified Eagle's Medium (DMEM) containing 10% heat inactivated fetal calf serum, 100 U/mL penicillin and 100 μg/mL streptomycin. HeLa cells were used at 70% confluence for transfection. 20,000 cells in 87 μL cell culture medium were transiently transfected with 40 ng pSTAT1(2)-luciferase reporter (Panomics), 8 ng of LacZ reporter as internal control reporter and 52 ng of pBSK using 0.32 μL Jet-PEI (Polyplus) as transfection reagent per well in 96-well plate format. After overnight incubation at 37° C., 5% CO2, transfection medium was removed. 81 μL of DMEM+1.5% heat inactivated fetal calf serum was added. 9 μL compound at 10× concentration was added for 60 min and then 10 μL of human OSM (Peprotech) at 33 ng/mL final concentration. […]
40 μL of cell lysate was used to read β-galactosidase activity by adding 180 μL β-Gal solution (30 μl ONPG 4 mg/mL+150 μL β-Galactosidase buffer (0.06 M Na2HPO4, 0.04 M NaH2PO4, 1 mM MgCl2)) for 20 min. The reaction was stopped by addition of 50 μL Na2CO3 1 M. Absorbance was read at 405 nm.
Luciferase activity was measured using 40 μL cell lysate plus 40 μL of Steadylite® as described by the manufacturer (Perkin Elmer), on the Envision (Perkin Elmer). […]

[1] = biological target: T1, Recombinant human JAK1 (catalytic domain, amino acids 866-1154) (Homo sapiens, UniProt P23458); test: JAK1 Ulight-JAK1 peptide assay; type: biochemical; conditions: Ulight-JAK1(tyr1023) peptide, 7 μM ATP; individual determinations; read-out: IC50 against JAK1
T1 construct: catalytic domain, amino acids 866-1154; purchased Invitrogen PV4774
T1 sequence (P23458 866-1154): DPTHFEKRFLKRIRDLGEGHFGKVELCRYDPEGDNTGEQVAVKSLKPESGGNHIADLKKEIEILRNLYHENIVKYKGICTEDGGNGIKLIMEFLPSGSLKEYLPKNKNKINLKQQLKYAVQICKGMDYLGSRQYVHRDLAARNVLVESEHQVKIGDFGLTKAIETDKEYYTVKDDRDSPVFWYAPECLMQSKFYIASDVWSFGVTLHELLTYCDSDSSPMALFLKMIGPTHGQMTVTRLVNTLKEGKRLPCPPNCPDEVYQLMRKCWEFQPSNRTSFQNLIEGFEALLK
Protocol: Recombinant human JAK1 (catalytic domain, amino acids 866-1154; catalog number PV4774) was purchased from Invitrogen. 1 ng of JAK1 was incubated with 20 nM Ulight-JAK1(tyr1023) peptide (Perkin Elmer catalog number TRF0121) in kinase reaction buffer (25 mM MOPS pH6.8, 0.01% Brij-35, 5 mM MgCl2, 2 mM DTT, 7 μM ATP) with or without 4 μL containing test compound or vehicle (DMSO, 1% final concentration), in a total volume of 20 μL, in a white 384 Opti plate (Perkin Elmer, catalog number 6007290). […] Readout is performed using the Envision with excitation at 320 nm and measuring emission at 615 nm (Perkin Elmer). Kinase activity was calculated by subtracting relative fluorescence units (RFU) obtained in the presence of a positive control inhibitor (10 μM staurosporine) from RFU obtained in the presence of vehicle. The ability of a test compound to inhibit this activity was determined as: Percentage inhibition=((RFU determined for sample with test compound present−RFU determined for sample with positive control inhibitor) divided by (RFU determined in the presence of vehicle−RFU determined for sample with positive control inhibitor))*100.
A dose dilution series was prepared for the compound enabling the testing of dose-response effects in the JAK1 assay and the calculation of the IC50 for the compound. […] The data are expressed as the average IC50 from the assays±standard error of the mean.

[2] = biological target: T2, Recombinant human JAK2 (catalytic domain) (Homo sapiens, UniProt O60674); test: JAK2 Ulight-JAK1 peptide assay; type: biochemical; conditions: Ulight-JAK1(tyr1023) peptide, 7.5 μM ATP; individual determinations; read-out: IC50 against JAK2
T2 construct: Recombinant human JAK2 catalytic domain (amino acids 808-1132; catalog number PV4210); purchased Invitrogen PV4210
T2 sequence (O60674 808-1132): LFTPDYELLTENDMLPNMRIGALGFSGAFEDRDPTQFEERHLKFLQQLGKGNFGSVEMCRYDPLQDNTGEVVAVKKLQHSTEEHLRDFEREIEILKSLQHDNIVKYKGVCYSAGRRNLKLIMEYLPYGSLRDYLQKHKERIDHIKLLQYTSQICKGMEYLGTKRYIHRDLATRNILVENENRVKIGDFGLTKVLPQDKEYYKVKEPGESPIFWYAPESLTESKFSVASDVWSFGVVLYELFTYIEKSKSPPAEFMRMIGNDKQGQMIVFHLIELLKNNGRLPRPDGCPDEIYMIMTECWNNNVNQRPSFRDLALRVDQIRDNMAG
Protocol: Recombinant human JAK2 (catalytic domain, amino acids 866-1154; catalog number PV4210) was purchased from Invitrogen. 0.0125 mU of JAK2 was incubated with 25 nM Ulight-JAK1(tyr1023) peptide (Perkin Elmer catalog number TRF0121) in kinase reaction buffer (25 mM HEPES pH7.0, 0.01% Triton X-100, 7.5 mM MgCl2, 2 mM DTT, 7.5 μM ATP) with or without 4 μL containing test compound or vehicle (DMSO, 1% final concentration), in a total volume of 20 μL, in a white 384 Opti plate (Perkin Elmer, catalog number 6007290). […] Readout is performed using the Envision with excitation at 320 nm and measuring emission at 615 nm (Perkin Elmer). Kinase activity was calculated by subtracting relative fluorescence units (RFU) obtained in the presence of a positive control inhibitor (10 μM staurosporine) from RFU obtained in the presence of vehicle. The ability of a test compound to inhibit this activity was determined as: Percentage inhibition=((RFU determined for sample with test compound present−RFU determined for sample with positive control inhibitor) divided by (RFU determined in the presence of vehicle−RFU determined for sample with positive control inhibitor))*100. […]

[3] = biological target: T3, Recombinant human JAK3 catalytic domain (Homo sapiens, UniProt P52333); test: JAK3 inhibition assay; type: biochemical; conditions: polyGT substrate, 1 μM ATP, 33P-gamma-ATP; individual determinations; read-out: IC50 against JAK3
T3 construct: catalytic domain (amino acids 795-1124; catalog number 08-046); purchased Carna Biosciences 08-046
T3 sequence (P52333 795-1124): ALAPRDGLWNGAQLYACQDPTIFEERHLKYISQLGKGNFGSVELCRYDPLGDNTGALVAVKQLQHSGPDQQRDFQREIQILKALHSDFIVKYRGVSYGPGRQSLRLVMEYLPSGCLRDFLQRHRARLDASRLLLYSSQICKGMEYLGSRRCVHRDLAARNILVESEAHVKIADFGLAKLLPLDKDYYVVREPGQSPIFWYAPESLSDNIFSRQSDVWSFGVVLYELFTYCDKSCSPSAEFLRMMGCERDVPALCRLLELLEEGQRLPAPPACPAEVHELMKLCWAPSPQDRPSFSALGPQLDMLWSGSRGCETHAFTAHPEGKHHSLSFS
Protocol: Recombinant human JAK3 catalytic domain (amino acids 795-1124; catalog number 08-046) was purchased from Carna Biosciences. 0.5 ng JAK3 protein was incubated with 2.5 μg polyGT substrate (Sigma catalog number P0275) in kinase reaction buffer (25 mM Tris pH 7.5, 0.5 mM EGTA, 10 mM MgCl2, 2.5 mM DTT, 0.5 mM Na3VO4, 5 mM b-glycerolphosphate, 0.01% Triton X-100, 1 μM non-radioactive ATP, 0.25 μCi 33P-gamma-ATP (Perkin Elmer, catalog number NEG602K001MC) final concentrations) with or without 5 μL containing test compound or vehicle (DMSO, 1% final concentration), in a total volume of 25 μL, in a polypropylene 96-well plate (Greiner, V-bottom). After 45 min at 30° C., reactions were stopped by adding 25 μL/well of 150 mM phosphoric acid. […] 40 μL/well of Microscint-20 was added, the top of the plates was sealed and readout was performed using the Topcount (Perkin Elmer). Kinase activity was calculated by subtracting counts per min (cpm) obtained in the presence of a positive control inhibitor (10 μM staurosporine) from cpm obtained in the presence of vehicle. The ability of a test compound to inhibit this activity was determined as: Percentage inhibition=((cpm determined for sample with test compound present−cpm determined for sample with positive control inhibitor) divided by (cpm determined in the presence of vehicle−cpm determined for sample with positive control inhibitor))*100. […]

TYK2 = biological target: T4, TYK2 (Homo sapiens, UniProt P29597); test: TYK2 Ki determination assay; type: biochemical; conditions: Lineweaver-Burk plot, polyGT substrate, varying ATP
T4 construct: catalytic domain (amino acids 871-1187; catalog number 08-147); purchased Carna Biosciences 08-147
T4 sequence (P29597 871-1187): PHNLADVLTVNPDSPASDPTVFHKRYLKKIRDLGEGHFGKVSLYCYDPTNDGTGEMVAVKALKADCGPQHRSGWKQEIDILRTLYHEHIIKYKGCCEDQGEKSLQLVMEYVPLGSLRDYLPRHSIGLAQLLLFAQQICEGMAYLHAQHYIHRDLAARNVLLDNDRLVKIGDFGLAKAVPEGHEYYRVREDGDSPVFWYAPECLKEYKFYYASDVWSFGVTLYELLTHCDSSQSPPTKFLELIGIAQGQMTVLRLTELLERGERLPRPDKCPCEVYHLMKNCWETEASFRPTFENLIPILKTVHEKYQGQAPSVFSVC
Protocol: For the determination of Ki, different amounts of compound are mixed with the enzyme and the enzymatic reaction is followed as a function of ATP concentration. The Ki is determined by means of double reciprocal plotting of Km vs compound concentration (Lineweaver-Burk plot). TYK2 (Carna Biosciences, 08-147) was used at a final concentration of 160 ng/ml. The substrate was Poly(Glu,Tyr)sodium salt (4:1), MW 20 000-50 000 (Sigma, P0275) The reaction was performed in 25 mM Hepes pH 7.2, 50 mM NaCl, 0.5 mM EDTA, 1 mM DTT, 5 mM MnCl2, 10 mM MgCl2, 0.1% Brij-35 with varying concentrations of ATP and compound and stopped by addition of 150 mM phosphoric acid. Measurement of incorporated phosphate into the substrate polyGT was done by loading the samples on a filter plate (using a harvester, Perkin Elmer) and subsequent washing. Incorporated ^33P in polyGT is measured in a Topcount scintillation counter after addition of scintillation liquid to the filter plates (Perkin Elmer).

[4] = biological target: T5, Recombinant human TYK2 catalytic domain (Homo sapiens, UniProt P29597); test: TYK2 inhibition assay; type: biochemical; conditions: polyGT substrate, 0.1 μM ATP, 33P-gamma-ATP; individual determinations; read-out: IC50 against TYK2
T5 construct: catalytic domain (amino acids 871-1187; catalog number 08-147); purchased Carna Biosciences 08-147
T5 sequence (P29597 871-1187): T4 sequence (P29597 871-1187)
Protocol: Recombinant human TYK2 catalytic domain (amino acids 871-1187; catalog number 08-147) was purchased from Carna biosciences. 4 ng of TYK2 was incubated with 12.5 μg polyGT substrate (Sigma catalog number P0275) in kinase reaction buffer (25 mM Hepes pH 7.2, 50 mM NaCl, 0.5 mM EDTA, 1 mM DTT, 5 mM MnCl2, 10 mM MgCl2, 0.1% Brij-35, 0.1 μM non-radioactive ATP, 0.125 μCi ^33P-gamma-ATP (Perkin Elmer, catalog number NEG602K001MC) final concentrations) with or without 5 μL containing test compound or vehicle (DMSO, 1% final concentration), in a total volume of 25 μL, in a polypropylene 96-well plate (Greiner, V-bottom). After 90 min at 30° C., reactions were stopped by adding 25 μL/well of 150 mM phosphoric acid. […] 40 μL/well of Microscint-20 was added, the top of the plates was sealed and readout was performed using the Topcount (Perkin Elmer). Kinase activity was calculated by subtracting counts per min (cpm) obtained in the presence of a positive control inhibitor (10 μM staurosporine) from cpm obtained in the presence of vehicle. The ability of a test compound to inhibit this activity was determined as: Percentage inhibition=((cpm determined for sample with test compound present−cpm determined for sample with positive control inhibitor) divided by (cpm determined in the presence of vehicle−cpm determined for sample with positive control inhibitor))*100. […]

IC50 (JAK-STAT): 970 nM
IC50 [1]: 8.18 nM and 11.5 nM and 7.71 nM and 35.2 nM and 7.85 nM
IC50 [2]: 17.3 nM and 11.3 nM and 9.57 nM and 26 nM and 18.2 nM
IC50 [3]: 271 nM and 299 nM and 213 nM and 428 nM
Ki (TYK2): 110 nM
IC50 [4]: 167 nM and 135 nM and 119 nM and 157 nM
Compound: CC(=O)Nc1cc2c(-c3ccc(CN4CCN(S(C)(=O)=O)CC4)c(F)c3)cccn2n1 [Compound 1]
